Test results taken from patent US9616047B2, “Inhibitors of beta-catenin in treatment of colorectal cancer” (Regents of the University of Minnesota, priority 2014, dated 2017).
“Also recorded” adds a separate entry of the source.

Columns and labels:
[1] = system: β-catenin/Tcf-4 luciferase activity; assay: β-catenin/Tcf-4 luciferase reporter assay (TOP-flash/FOP-flash) in HCT116; type: cell-based; conditions: normalized to Renilla, 24 h treatment
Text: (§1) FIGS. 1A-C. HI-B1, HI-B5 and HI-B9 inhibit beta-catenin/Tcf-4 luciferase activity in colon cancer cell lines. (A) Chemical structures of three compounds. (B-C) Effects of HI-B1, HI-B5 and HI-B9 on the β-catenin/Tcf-4 luciferase activity in HCT116 (B) and HT29 (C) colon cancer cell lines. […] Colon cancer cells were co-transfected with reporter genes harboring the β-catenin/Tcf binding site (TOP-flash) or a mutant β-catenin/Tcf binding site (FOP-flash), respectively, and the Renilla gene. The luciferase activity was normalized to Renilla activity.
(§2) Transient transfection was performed using jetPEI and assays to detect firefly luciferase and Renilla activities according to the manufacturer's manual (Promega). Briefly, cells were seeded onto 10-cm plates and co-transfected with 400 ng of the Renilla luciferase internal control gene and 4 μg of the TOP-flash luciferase reporter construct containing three tandem Tcf consensus binding sites upstream of luciferase cDNA, or the FOPflash luciferase reporter construct, a plasmid with mutated Tcf binding sites. After 16 h of transfection, cells were trypsinized and seeded onto 48-well plates, and cells were treated with respective chemicals for 24 h. Luciferase and Renilla activities were measured using their substrates.

β-catenin = assay: Ex vivo pull-down with compound-conjugated Sepharose 4B beads and colon cancer cell lysate: β-catenin; type: binding; conditions: colon cancer cell lysates; compound-conjugated Sepharose 4B beads
Method: (§3) Protein extracts (500 μg) of colon cancer cells were mixed with Sepharose-4B beads (as a negative control) or chemical-conjugated Sepharose 4B beads (100 μl) in reaction buffer. After being washed five times with buffer, the proteins were visualized by Western blot analysis.

β-catenin/Tcf-4 complex = assay: Immunoprecipitation assay of β-catenin/Tcf-4 complex in colon cancer cells; type: cell-based
Method: Colon cancer cells treated or not treated with low or high concentrations of compounds for 24 h were disrupted with lysis buffer (50 mmol/L Tris, pH 8, 250 mmol/L NaCl, 5 mmol/L EDTA, 0.1% NP-40, 10% glycerol, and 1× protease inhibitor cocktail). Cell lysates were cleared by centrifugation, and immunoprecipitations were performed by incubating overnight with anti-β-catenin. Agarose beads were then added and samples incubated for 3 h at 4° C. After removing unbound proteins by washing five times with lysis buffer, bound proteins were harvested by boiling in sample buffer, and resolved by 8% SDS-PAGE. β-Catenin and Tcf-4 proteins were visualized using a chemiluminescence reagent (Amersham).

Tcf-4/β-catenin complex [2] = biological target: T1, Tcf-4/β-catenin complex (Homo sapiens, UniProt P35222); assay: Immunoprecipitation and Western blotting in 293T cells transfected with wildtype or mutant β-catenin; type: cell-based; conditions: 293T cells transfected with wildtype β-catenin
T1 construct: expressed in transfected cells; host or cells: 293T cells
T1 sequence (P35222 2-781): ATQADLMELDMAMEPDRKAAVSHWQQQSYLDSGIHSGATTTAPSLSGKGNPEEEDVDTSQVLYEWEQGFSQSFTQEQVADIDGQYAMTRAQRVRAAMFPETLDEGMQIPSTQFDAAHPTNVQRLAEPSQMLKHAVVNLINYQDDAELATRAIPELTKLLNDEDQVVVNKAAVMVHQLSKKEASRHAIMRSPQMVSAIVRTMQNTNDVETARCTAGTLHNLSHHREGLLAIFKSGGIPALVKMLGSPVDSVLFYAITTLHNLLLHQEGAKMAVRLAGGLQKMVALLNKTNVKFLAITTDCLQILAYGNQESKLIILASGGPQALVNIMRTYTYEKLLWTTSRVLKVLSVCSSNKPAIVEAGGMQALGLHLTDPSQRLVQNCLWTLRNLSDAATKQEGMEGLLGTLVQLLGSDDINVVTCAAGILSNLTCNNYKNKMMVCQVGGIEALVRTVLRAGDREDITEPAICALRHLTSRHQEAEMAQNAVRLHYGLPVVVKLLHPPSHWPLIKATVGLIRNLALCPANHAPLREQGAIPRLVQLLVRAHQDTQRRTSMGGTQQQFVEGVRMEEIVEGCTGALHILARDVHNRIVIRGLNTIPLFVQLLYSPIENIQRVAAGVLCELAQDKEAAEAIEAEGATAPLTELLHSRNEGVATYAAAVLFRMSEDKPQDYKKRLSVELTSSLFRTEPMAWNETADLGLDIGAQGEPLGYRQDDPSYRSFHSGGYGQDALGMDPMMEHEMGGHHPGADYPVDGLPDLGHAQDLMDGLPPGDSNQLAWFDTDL
Method: (§4) We used computational biology technology and medicinal chemistry to identify potential inhibitors of β-catenin. […] To further confirm binding, wildtype or mutant β-catenin was transfected into 293T cells and immunoprecipitation and Western blotting were performed. […] Overall, esculetin appears to be an effective, non-toxic inhibitor of the Tcf-4/β-catenin complex.

Tcf-4/β-catenin complex [3] = assay: as above; type: cell-based; conditions: 293T cells transfected with mutant β-catenin
Method: as §4

[4] = system: xenograft colon cancer tumor; assay: Xenograft colon cancer tumor growth in nude mice; type: in vivo
[5] = system: β-catenin/Tcf-4 luciferase activity; assay: β-catenin/Tcf-4 luciferase reporter assay (TOP-flash/FOP-flash) in HT29; type: cell-based; conditions: normalized to Renilla, 24 h treatment
Text: as §1, §2

[6] = system: HCT116 colon cancer cells; assay: Soft agar assay, anchorage-independent growth, HCT116; type: cell-based
Method: (§5) FIG. 2. […] HCT116 and HT-29 colon cancer cells. Colony formation of two cell lines were inhibited by treatment of β-catenin inhibitor candidates. Cells (8×10^3/ml) were incubated with or without HI-B5 or HI-B9 compounds in 1 mL of 0.33% BME agar containing 10% FBS or in 3.5 mL of 0.5% BME agar containing 10% FBS. The cultures were maintained at 37° C. in a 5% CO2 incubator for 7 days, after which the cell colonies were counted under a microscope.
(§6) Cells (8×10^3 per well) suspended in Basal Medium Eagle (BME) supplemented with 10% FBS were added to 0.3% agar with different doses of chemicals in a top layer over a basal layer of 0.6% agar. The cultures were maintained at 37° C. in a 5% CO2 incubator for 2 wk and then colonies were counted under a microscope using the Image-Pro Plus Software (v.4) program (Media Cybernetics).

HT-29 colon cancer cells = assay: Soft agar assay, anchorage-independent growth, HT29; type: cell-based
Method: as §5, §6

[7] = system: target genes expressed by β-catenin/Tcf-4 complex; assay: Quantitative real-time PCR of β-catenin/Tcf-4 target genes; type: cell-based; conditions: HI-B5 40 μM or HI-B9 20 μM; 12 hr of treatment
Method: FIGS. 3A-D. HI-B5 and HI-B9 reduce mRNA expression level of target genes expressed by β-catenin/Tcf-4 complex. (A) axin2, (B) cyclin D1, (C) c-myc and (D) pparδ mRNA expression was reduced by HI-B5 40 μM or HI-B9 20 μM treatment. Esculetin was used as a positive control. Expression level of each gene was detected after 12 hr of chemical treatment.
RNA isolation was performed according to the Trizol reagent protocol (catalog #15596-018, Invitrogen). The concentration and the purity of RNA was determined by measuring the absorbance at 260/280 nm. cDNA was synthesized using 1 μg of RNA and the amfiRevert Platinum cDNA synthesis master mix (GenDEPOT, Cat. No. R5600). For real time PCR, 1 μl of the synthesized cDNA was loaded into 1 well of a 96-well plate for detection of specific target genes using the Power SYBR Green PCR master mix (ABsystems, #4367659).

Tcf-4 = biological target: T2, Tcf-4 (Homo sapiens, UniProt Q9NQB0); assay: Ex vivo pull-down with compound-conjugated Sepharose 4B beads and colon cancer cell lysate: Tcf-4; type: binding; conditions: HCT116 and HT29 cell lysate
T2 construct: Protein extracts (500 μg) of colon cancer cells were mixed with Sepharose-4B beads; endogenous in cells; host or cells: HCT116 and HT29 cell lysate
Method: as §3

T2 sequence (Q9NQB0 whole entry): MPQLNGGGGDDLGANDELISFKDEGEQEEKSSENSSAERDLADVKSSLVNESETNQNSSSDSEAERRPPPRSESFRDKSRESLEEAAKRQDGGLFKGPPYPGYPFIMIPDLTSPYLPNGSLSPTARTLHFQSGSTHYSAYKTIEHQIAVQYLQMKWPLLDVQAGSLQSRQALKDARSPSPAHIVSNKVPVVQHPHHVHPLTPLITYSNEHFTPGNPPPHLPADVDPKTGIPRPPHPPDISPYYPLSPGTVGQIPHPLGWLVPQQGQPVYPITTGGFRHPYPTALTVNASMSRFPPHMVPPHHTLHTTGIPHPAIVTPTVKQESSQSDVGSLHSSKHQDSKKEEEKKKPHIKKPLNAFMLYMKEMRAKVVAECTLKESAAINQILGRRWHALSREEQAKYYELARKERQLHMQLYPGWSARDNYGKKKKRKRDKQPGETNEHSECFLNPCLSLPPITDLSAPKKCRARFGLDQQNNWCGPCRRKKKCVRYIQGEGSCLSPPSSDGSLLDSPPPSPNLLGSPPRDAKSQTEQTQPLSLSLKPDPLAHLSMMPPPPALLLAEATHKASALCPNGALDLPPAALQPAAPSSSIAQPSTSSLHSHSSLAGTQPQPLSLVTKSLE

| Structure (SMILES) | transcriptional activity of β-catenin/Tcf-4 (luciferase activity) [1] | binding to β-catenin (ex vivo pull-down) (β-catenin) | disruption of nuclear Tcf-4/β-catenin complex (β-catenin/Tcf-4 complex; colon cancer cells) | disruption of wildtype Tcf-4/β-catenin complex (Tcf-4/β-catenin complex [2]) | effect on mutant Tcf-4/β-catenin complex (Tcf-4/β-catenin complex [3]) | c-Myc and cyclin D1 expression in tumors ([4]; nude mice) | tumor size ([4]; nude mice) | xenograft colon cancer tumor growth ([4]; nude mice) | toxicity ([4]; overall statement) | transcriptional activity of β-catenin/Tcf-4 (luciferase activity) [5] | anchorage-independent growth (colony formation in soft agar) [6] | anchorage-independent growth (colony formation in soft agar) (HT-29 colon cancer cells) | axin2 mRNA expression [7] | c-myc mRNA expression [7] | cyclin D1 mRNA expression [7] | pparδ mRNA expression [7] | binding to Tcf-4 (ex vivo pull-down) (Tcf-4) | Tcf-4 expression level after chemical treatment (β-catenin/Tcf-4 complex; HCT116) | disruption of β-catenin/Tcf-4 complex (immunoprecipitation) (β-catenin/Tcf-4 complex; HCT116 cell line, dose-dependent) |
| --- | --- | --- | --- | --- | --- | --- | --- | --- | --- | --- | --- | --- | --- | --- | --- | --- | --- | --- | --- |
| O=c1ccc2cc(O)c(O)cc2o1 [esculetin] | inhibited transcriptional activity of the β-catenin/Tcf complex | verified the binding | disrupted the nuclear Tcf-4/β-catenin complex in a dose-dependent manner | effectively disrupted | had no effect | decreases | significantly smaller | effectively inhibited xenograft colon cancer tumor growth | non-toxic | – | – | – | – | – | – | – | – | – | – |
| CC1=C(/C=C/C(=O)/C=C2/C(=O)Nc3ccc(F)cc32)C(C)(C)CCC1 [HI-B5] | suppress transcriptional activity of the β-catenin/Tcf-4 in a dose-dependent manner | verified the binding; also recorded: can interact with β-catenin | – | – | – | – | – | – | – | suppress transcriptional activity of the β-catenin/Tcf-4 in a dose-dependent manner | suppress anchorage-independent growth | suppress anchorage-independent growth | reduced | reduced | reduced | reduced | not Tcf-4 | not altered | caused disruption of β-catenin/Tcf-4 complex |
| CC1(C)CCC(C)(C)c2cc(C(=O)CC3(O)C(=O)Nc4ccc(F)cc43)ccc21 (stereo not drawn) [HI-B9] | suppress transcriptional activity of the β-catenin/Tcf-4 in a dose-dependent manner | verified the binding | – | – | – | – | – | – | – | suppress transcriptional activity of the β-catenin/Tcf-4 in a dose-dependent manner | suppress anchorage-independent growth | suppress anchorage-independent growth | reduced | reduced | reduced | reduced | – | – | – |
